Experiment [1] deals with MEK1/2. Set-up: method as in PMID 21245089. The following applies: cited from earlier work.
Experiment [2] concerns the target T1, MEK1 (Homo sapiens, UniProt Q02750).
T1 construct: purchased Carna Biosciences, Japan
The experiment in a line: In vitro MEK1 inhibition assay (ADP-Glo kinase assay). Type of experiment: biochemical. As for the experimental part:
An in vitro kinase assay of MEK1 was performed using ADP-Glo kinase assay (Promega, Madison, WI, USA) according to the manufacturer’s protocol. […] Reactions were stopped by adding 5 µL of ADP-Glo reagent to each well. After incubating at 22 °C for 40 min, 10 µL of the kinase detection reagent was added and the plates were incubated for another 30 min at 22 °C in the dark. The reaction mixture was analysed by EnSpire (PerkinElmer, Waltham, MA, USA). U0126 was used as the positive control for MEK1 inhibition.
In general terms: ADP-Glo first removes unused ATP, then detects ADP through luciferase.

Experiment [3] relates to SMMC-7721. The experiment in a line: MTT cytotoxic assay. The class given is cell-based, human. The following applies: Homo sapiens, SMMC-7721, 48 h, mean value ± SD. Here is the method:
(§1) Three human hepatocarcinoma cell lines (SMMC-7721, HepG2 and Hep3B) and normal hepatocyte cell line (QSG-7701) were maintained in Dulbecco Modified Eagle Medium (DMEM) containing 4.0 mM L-Glutamine and 4500 mg/l Glucose supplemented with 10% (v/v) foetalbovine serum (FBS) and 100 unites/mL penicillin/streptomycin at 37 °C in humidified atmosphere of 5% CO2 and 95% air.
(§2) The in vitro cytotoxic activities of the carbazole derivatives of DHA were evaluated against three human hepatocarcinoma cell lines (SMMC-7721, HepG2 and Hep3B) and a normal human hepatocyte cell line (QSG-7701) via the MTT colorimetric method. Briefly, SMMC-7721, HepG2, Hep3B and QSG-7701 cells were harvested at log phase of growth and seeded in 96-well plates (100 µL/well at a density of 2 × 10^5 cells/mL). After 24 h incubation at 37 °C and 5% CO2 to allow cell attachment, cultures were exposed to various concentrations of the isolated compounds for 48 h. Finally, MTT solution (2.5 mg/mL in PBS) was added (40 µL/well). Plates were further incubated for 4 h at 37 °C, and the formazan crystals formed were dissolved by adding 150 µL/well of DMSO. Absorption at 570 nm was measured with an ELISA plate reader. […] Doxorubicin was co-assayed as positive control.
In general terms: Tetrazolium assays rely on reduction of a dye to a coloured formazan, in cell work by metabolically active cells.

In experiment [4] the test system is Hep3B. The experiment in a line: MTT cytotoxic assay. The following applies: Homo sapiens, Hep3B, 48 h, mean value ± SD. Type of experiment: cell-based, human. As for the experimental part:
as §1, §2

In experiment [5] the test system is HepG2. The experiment in a line: MTT cytotoxic assay. The class given is cell-based, human. The following applies: Homo sapiens, HepG2, 48 h, mean value ± SD. Here is the method: as §1, §2
In experiment [6] the test system is three human hepatocarcinoma cell lines (SMMC-7721, HepG2 and Hep3B). The experiment in a line: MTT cytotoxic assay, statements over the three cancer cell lines. Type of experiment: cell-based. The following applies: Homo sapiens; at least one of SMMC-7721, HepG2, Hep3B; read-out: IC50 against at least one hepatocarcinoma cell line. Here is the method: as §1, §2

In experiment [7] the test system is normal hepatocyte cell line (QSG-7701). The experiment in a line: MTT cytotoxic assay on normal hepatocytes. The class given is cell-based, human. Conditions: Homo sapiens, QSG7701, 48 h, mean value ± SD. As for the experimental part:
as §1, §2

In experiment [8] the target is T1, MEK1. The experiment in a line: Preliminary screening of in vitro MEK1 inhibitory activity. Type of experiment: biochemical.

Broadly, the IC50 is the point on the concentration scale where inhibition reaches its midpoint.

T1 sequence (Q02750 whole entry): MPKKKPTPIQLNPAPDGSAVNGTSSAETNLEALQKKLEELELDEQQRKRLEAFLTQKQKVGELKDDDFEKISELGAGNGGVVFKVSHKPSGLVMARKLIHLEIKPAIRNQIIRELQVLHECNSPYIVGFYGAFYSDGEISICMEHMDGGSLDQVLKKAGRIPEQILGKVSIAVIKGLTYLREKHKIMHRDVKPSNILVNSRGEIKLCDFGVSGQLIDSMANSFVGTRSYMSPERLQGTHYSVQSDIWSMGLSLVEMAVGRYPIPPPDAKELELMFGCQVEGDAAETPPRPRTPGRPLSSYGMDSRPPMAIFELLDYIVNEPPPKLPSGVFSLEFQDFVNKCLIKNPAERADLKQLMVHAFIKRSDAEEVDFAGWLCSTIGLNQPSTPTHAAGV

On to `CC(=O)Nc1cccc(-n2c(=O)n(C3CC3)c(=O)c3c(Nc4ccc(I)cc4F)n(C)c(=O)c(C)c32)c1` [trametinib], for which the half-inhibitory concentration (IC50) in experiment [1] was 0.0007 to 0.0009 µM.

For the molecule `COC(=O)C1(C)CCCC2(C)c3ccc(C(C)C)cc3-c3c(c4ccccc4n3CCN3CCNCC3)C12` (stereo not drawn) [Compound 6a, 2,3,4,4a,9,13c-Hexahydro-7-isopropyl-1,4a-dimethyl-9–(2-(piperazin-1-yl)ethyl) -1H-dibenzo[a,c]carbazole-1-carboxylic acid methyl ester], in experiment [2], the “MEK1 inhibitory activity (in words)” value is given as “weak MEK1 inhibitory activity”. Besides, the IC50 in experiment [2] (recombinant GST-MEK1, GST-ERK2, 10 µM ATP, mean value ± SD, read-out: MEK1 inhibitory activity IC50 value) was 13.2 ± 0.73 µM; in experiment [3], 5.2 ± 0.21 µM; in experiment [4] it was 0.82 ± 0.08 µM; in experiment [5], 2.28 ± 0.19 µM; in experiment [6] it was less than 10 µM; in experiment [7] it was 8.75 ± 0.65 µM. Further, the “MEK1 inhibitory activity in preliminary screening (in words)” value in experiment [8] is “moderate inhibitory activity”.

Values taken from article PMC6720511, “Synthesis and biological evaluation of novel N-(piperazin-1-yl)alkyl-1H-dibenzo[a,c]carbazole derivatives of dehydroabietic acid as potential MEK inhibitors” (Journal of Enzyme Inhibition and Medicinal Chemistry, 2019).
